Columns and labels:
[1] = Lipophilicity coefficient RM0 by reversed phase thin layer chromatography; type: physicochemical; conditions: RP-18 TLC, methanol / 100 mM phosphate buffer pH = 7.4
Method: Confirmation of the identity and purity of the obtained compounds consisted in the registration and interpretation of ^1H NMR and ^13C NMR spectra (the spectra were recorded using an ECZR 500 MHz (JEOL) series FT-NMR spectrophotometer), as well as the registration and interpretation of LC-MS spectra (the spectra were recorded using Acquita UPLC system (Waters) coupled with a Waters TQD mass spectrometer). The melting point was measured using the open capillary method in the IA9300 device (Electrothermal). The lipophilicity coefficient RM0 was determined by reversed phase thin layer chromatography. In the study, aluminum plates 20x20 cm covered with modified silica gel RP-18 F254 (Merck) were used as the solid phase. The mobile phase consisted of solutions of methanol and 100 mM phosphate buffer (pH = 7.4), characterized by a variable methanol content ranging from 95 to 65% (v/v). The tested compounds were dissolved in methanol to obtain solutions with a concentration of 1 mg/mL. Then, 5 µL of the solutions prepared in this way were transferred to the starting line on aluminum plates, which were then placed in chromatographic chambers previously saturated with mobile phase vapors for at least 1 hour. All activities, including the development of chromatograms, were carried out at room temperature. After developing the chromatograms to approximately 1-2 cm from the end of the plate, the plates were dried and then the distance traveled by the tested compounds was visualized under UV light (λ = 254 nm). The experiment was performed in duplicate for the specified conditions. For all samples, Rf was calculated according to the formula Rf = a/b, where a - the distance traveled by the tested compound, b - the distance traveled by the mobile phase. Then, the RM parameter was calculated for all samples according to the formula RM = log(1/Rf - 1), obtaining a linear relationship between the RM values and the methanol concentration in the mobile phase. The logP coefficient was also calculated using the following computer programs: ACD/ChemSketch 2020.1.2 and ChemDraw 20.0.0.41. Table 2. The physicochemical data of the compounds are presented below

[2] = tested on: tyrosinase from mushroom; assay: Inhibition of commercial mushroom tyrosinase (L-DOPA or L-tyrosine substrate); type: biochemical
Method: The following substrates were used for the enzymatic reaction: L-tyrosine and L-3,4-dihyroxyphenylalanine (L-DOPA). Both substrates were used in independent experiments. According to the literature, the use of L-DOPA enables the assessment of tyrosinase diphenolase activity, and L-tyrosine - the tyrosinase monophenolase activity. The determinations were performed in 96-well plates, in each well there was placed: 170 µL or 127.5 µL of 50 mM phosphate buffer (pH = 6.8) with tyrosinase (1U/well or 3U/well) and 10 µL of a solution of the tested compound in DMSO (the final concentration in the well was 500 µM, 250 µM or 125 µM). The negative control used 10 µL of pure solvent (DMSO). To initiate the reaction, an appropriate substrate was added: L-tyrosine (62.5 µL of solution in phosphate buffer) or L-DOPA (20 µL of solution in phosphate buffer). After a 25-minute incubation, the absorbance was measured at 475 nm using a microplate reader. The percentage of inhibition of tyrosinase activity was calculated using the formula: [(AC -AT)/AC] × 100, where AC - is the absorbance of the negative control, AT - is the absorbance of the sample containing the tested compound.

[3] = tested on: B16-F10 murine melanoma cell line; assay: Cytotoxicity in B16-F10 cells (MTT); type: cell-based; conditions: 48 h
Method: In order to determine safe doses of compounds for testing the inhibition of melanogenesis in a murine melanoma cell line, cytotoxicity tests were performed. Cytotoxicity was determined by the colorimetric method using MTT ([3-(4,5-dimethyl-2-thiazolyl)-2,5-diphenyl-2H-tetrazolium bromide, Sigma M5655). For this purpose, cells were transferred to 96-well plates in an amount of 5000/well. After 24 h of culture in an incubator in F 10-Ham medium with 1% FBS, the tested compounds at various concentrations were added to the wells together with fresh medium. DMSO was added to the medium in a negative control. The MTT test was performed after further culture for 48 h. Then the medium was removed and the formed formazan crystals were dissolved in DMSO. The absorbance was measured at 570 nm in a plate reader and the result was compared to the control (DMSO), which was 100%. The percentage of viability was calculated using the formula: [AT/AC^∗100], where AT is the absorbance of the test sample, AC - absorbance of the control sample. Table 3. Results of inhibiting the activity of monophenolase […] tyrosinase and cytotoxicity testing in B16F10 cells for the described compounds.

Row | SMILES | RM0 [1] | Tyrosinase inhibition with L-DOPA [%] ([2]; 125 µM) | Tyrosinase inhibition with L-tyrosine [%] ([2]; 125 µM) | Cytotoxicity study in B16F10 cells % viability ([3]; 150 µM) [%] | Cytotoxicity study in B16F10 cells % viability ([3]; 200 µM) [%] | Cytotoxicity study in B16F10 cells % viability ([3]; 250 µM) [%] | Tyrosinase inhibition with L-DOPA [%] [2] | Tyrosinase inhibition with L-tyrosine [%] [2]
1 | O=C(/C=C/c1ccc(Cl)cc1)NCCCCCCO [H-426/21, (2E)-3-(4-chlorophenyl)-N-(6-hydroxyhexyl)prop-2-enamide] | 3.02 | 30.66±1.82% (125 µM) | 39.89±3.21% (125 µM) | 30.3 | 28.2 | 28.3 | – | –
2 | O=C(/C=C/c1ccccc1)NCCO [H-429/21, (2E)-N-(2-hydroxyethyl)-3-phenylprop-2-enamide] | 1.27 | – | – | 86.4 | 79.8 | 80.9 | 30.54±1.20% (500 µM) | 21.00±8.83% (500 µM)
3 | O=C(/C=C/c1ccccc1)NCCCO [KM-634, (2E)-N-(3-hydroxypropyl)-3-phenylprop-2-enamide] | 1.60 | – | – | 76.1 | 70.5 | 63.3 | 34.23±2.32% (500 µM) | 27.41±2.24% (500 µM)
